A short description of data set [1]: Cytotoxicity against rat RIN5F cells at 225 uM. Format: cell-based.
Data set [2] in a line: Inhibition of amylin-induced cytotoxicity in rat RIN5F cells at 225 uM after 24 hrs by MTT assay relative to control. Details: scale not given: the % may be the effect or the level left. It is filed as functional.

We go through 10 compounds from ChEMBL document CHEMBL1156876, “Design and study of peptide-based inhibitors of amylin cytotoxicity” (Bioorg Med Chem Lett, 2010).

Non-standard residues stand in square brackets, D forms with d. Residues, ends and D or L forms follow the SMILES beside them. NMeH = CN[C@@H](Cc1c[nH]cn1)C(=O)O; NMeF = CN[C@@H](Cc1ccccc1)C(=O)O; NMeI = CC[C@H](C)[C@H](NC)C(=O)O; NMeT = CN[C@H](C(=O)O)[C@@H](C)O; NMeN = CN[C@@H](CC(N)=O)C(=O)O; NMeL = CN[C@@H](CC(C)C)C(=O)O; NMeV = CN[C@H](C(=O)O)C(C)C; NMeS = CN[C@@H](CO)C(=O)O; NMeA = CN[C@@H](C)C(=O)O; Sar = CNCC(=O)O

Take `CC(C)C[C@@H](C(=O)N(C)[C@@H](C)C(N)=O)N(C)C(=O)[C@H](CCCNC(=N)N)N(C)C(=O)[C@H](CCC(N)=O)N(C)C(=O)[C@@H](N)[C@H](C)O`: the Activity result in data set [1] is listed as “Non-toxic”.
As for `CC(C)C[C@@H](C(=O)N(C)[C@H](C(=O)N(C)[C@@H](Cc1cnc[nH]1)C(=O)N(C)[C@@H](CO)C(=O)N(C)[C@@H](CO)C(N)=O)C(C)C)N(C)C(=O)[C@@H](N)Cc1ccccc1` (H-F[NMeL][NMeV][NMeH][NMeS][NMeS]-NH2), the Activity result in data set [1] is given as “Non-toxic”.
With `C[C@H](NC(=O)[C@@H](NC(=O)[C@@H](N)CC(N)=O)[C@@H](C)O)C(=O)N[C@H](C(N)=O)[C@@H](C)O` (H-NTAT-NH2), the figures for the Activity result in data set [1] and in data set [2] were “Non-toxic” and 25%, respectively.
For the compound `CC[C@H](C)[C@@H](C(=O)N(C)[C@@H](CC(C)C)C(N)=O)N(C)C(=O)[C@H](C)N(C)C(=O)CN(C)C(=O)[C@H](Cc1ccccc1)N(C)C(=O)[C@@H](N)CC(N)=O` (H-N[NMeF][Sar][NMeA][NMeI][NMeL]-NH2), the Activity result in data set [1] is reported as “Non-toxic”.
For `C[C@@H](O)[C@@H](C(=O)N(C)[C@@H](C)C(=O)N(C)[C@H](C(N)=O)[C@@H](C)O)N(C)C(=O)[C@@H](N)CC(N)=O` (H-N[NMeT][NMeA][NMeT]-NH2), the Activity result in data set [1] is reported as “Non-toxic”.
`CC(C)[C@@H](C(=O)N(C)CC(=O)N(C)[C@@H](CO)C(N)=O)N(C)C(=O)[C@H](CC(N)=O)N(C)C(=O)[C@H]([C@@H](C)O)N(C)C(=O)[C@@H](N)CO` (H-S[NMeT][NMeN][NMeV][Sar][NMeS]-NH2): the Activity result in data set [1] is reported as “Non-toxic”.
On to H-FLVHSS-NH2, for which the figures for the Activity entry in data set [1] and in data set [2] were “Non-toxic” and 20%, respectively.
With H-NFGAIL-NH2, the values for the Activity result in data set [1] and in data set [2] were “Non-toxic” and 50%, respectively.
H-STNVGS-NH2: the Activity result in data set [1] was “Non-toxic”; in data set [2], 18%.
For the compound H-TQRLA-NH2, the Activity entry is reported as “Non-toxic” in data set [1] and 50% in data set [2].
